# Where “and” joins values, the source holds several entries; their conditions need not be identical. Equal values may be shown once.
# Columns and labels:
# [1] = biological target: T1, unmodified α7–GlyR (Homo sapiens, UniProt P23415+P36544); assay: Membrane potential assay, unmodified α7–GlyR; type: cell-based; conditions: a7-GlyR
# T1 construct: expressed in transfected cells; host or cells: HEK293 (ATCC CRL-1573), pcDNA3.1
# [2] = biological target: T2, unmodified α7–5HT3 (UniProt P23979+P36544, M226I/T225I); assay: Membrane potential assay, unmodified α7–5HT3; type: cell-based, human α7 nAChR LBD, mouse 5HT3 IPD; conditions: a7-5Ht3; for Max normalized AVG: AVG of DR 1-3; for Max normalized, single replicate: relative to ACh max of the DR
# T2 construct: expressed in transfected cells; host or cells: HEK293 (ATCC CRL-1573), pcDNA3.1
# [3] = system: hippocampal neurons expressing GFP; assay: Current-clamp of control cultured hippocampal neurons expressing GFP; type: cell-based, rat; conditions: GFP; 3 uM relative to PRE; unlabelled mean line
# [4] = biological target: T3, coca-GlyR (α7(L141G,G175K,Y217F)–GlyR) (Homo sapiens, UniProt P23415+P36544, G175K/L141G/Y217F); assay: Membrane potential assay, coca-GlyR in HEK293; type: cell-based; conditions: coca-GlyR; for Max normalized AVG: AVG of DRs
# T3 construct: expressed in transfected cells; host or cells: HEK293 (ATCC CRL-1573), pcDNA3.1
# [5] = system: coca-5HT3 in cultured hippocampal neurons; assay: Current-clamp of cultured hippocampal neurons expressing coca-5HT3; type: cell-based, rat; conditions: coca-5HT3; coc (3 uM) relative to pre; unlabelled mean line
# [6] = biological target: coca-5HT3 (α7(L141G,G175K,Y210F,Y217F)–5HT3) (Homo sapiens, UniProt P36544, G175K/L141G/Y210F/Y217F); assay: Membrane potential assay, coca-5HT3 in HEK293; conditions: coca-5HT3; for Max normalized AVG: AVG of DRs
# Sequence of coca-5HT3 (α7(L141G,G175K,Y210F,Y217F)–5HT3) (P36544 23-224 L141G/G175K/Y210F/Y217F): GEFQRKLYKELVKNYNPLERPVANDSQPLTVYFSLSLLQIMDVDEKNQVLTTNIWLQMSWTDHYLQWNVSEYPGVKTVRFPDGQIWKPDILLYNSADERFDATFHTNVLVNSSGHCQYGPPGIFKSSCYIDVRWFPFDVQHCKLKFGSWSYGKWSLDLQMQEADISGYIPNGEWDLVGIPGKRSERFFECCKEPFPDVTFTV
# Sequence of coca-5HT3 (α7(L141G,G175K,Y210F,Y217F)–5HT3) (P23979 242-489, further chain): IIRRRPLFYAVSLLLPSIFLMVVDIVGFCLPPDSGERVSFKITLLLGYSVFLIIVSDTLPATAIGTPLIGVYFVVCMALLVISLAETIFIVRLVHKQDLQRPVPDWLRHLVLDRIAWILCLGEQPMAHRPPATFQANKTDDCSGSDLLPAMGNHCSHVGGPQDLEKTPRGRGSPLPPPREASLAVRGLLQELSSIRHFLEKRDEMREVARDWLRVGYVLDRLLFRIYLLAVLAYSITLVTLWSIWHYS
# T1 sequence (P36544+P23415 fused): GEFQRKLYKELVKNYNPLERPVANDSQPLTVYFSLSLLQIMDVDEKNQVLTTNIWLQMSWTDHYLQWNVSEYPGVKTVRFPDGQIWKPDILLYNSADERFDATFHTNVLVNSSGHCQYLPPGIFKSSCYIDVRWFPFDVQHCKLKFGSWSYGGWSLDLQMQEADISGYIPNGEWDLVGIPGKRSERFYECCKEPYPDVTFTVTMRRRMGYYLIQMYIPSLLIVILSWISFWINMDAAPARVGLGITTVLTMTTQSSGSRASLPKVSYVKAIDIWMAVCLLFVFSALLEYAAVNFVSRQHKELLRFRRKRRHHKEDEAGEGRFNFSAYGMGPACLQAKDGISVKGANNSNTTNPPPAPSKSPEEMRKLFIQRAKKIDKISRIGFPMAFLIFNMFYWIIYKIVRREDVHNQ
# T2 sequence (P36544+P23979 fused P36544:T225I/P36544:M226I): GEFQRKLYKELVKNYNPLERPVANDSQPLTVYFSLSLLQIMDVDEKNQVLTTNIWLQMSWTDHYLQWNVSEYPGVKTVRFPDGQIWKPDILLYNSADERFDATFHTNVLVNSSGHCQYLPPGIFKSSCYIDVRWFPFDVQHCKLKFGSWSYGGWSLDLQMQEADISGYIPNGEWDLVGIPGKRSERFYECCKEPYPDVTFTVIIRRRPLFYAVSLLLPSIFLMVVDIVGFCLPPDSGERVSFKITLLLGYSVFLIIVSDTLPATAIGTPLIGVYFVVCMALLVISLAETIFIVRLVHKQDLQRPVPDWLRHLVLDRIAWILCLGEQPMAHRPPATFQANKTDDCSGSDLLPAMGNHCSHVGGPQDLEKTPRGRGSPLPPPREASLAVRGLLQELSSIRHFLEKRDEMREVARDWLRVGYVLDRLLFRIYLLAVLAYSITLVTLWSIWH
# T3 sequence (P36544+P23415 fused P36544:L141G/P36544:G175K/P36544:Y217F): as the sequence (P36544+P23415 fused) above, with L119G, G153K, Y195F counted along it
smiles,measurement,setting,value
COC(=O)[C@H]1[C@@H](OC(=O)c2ccccc2)C[C@@H]2CC[C@H]1N2C [coc],"DR response, single replicate",[1]; concentration 0.0457247,0.05 and 0.083 and 0.071
same,"DR response, single replicate",[1]; concentration 0.137174,0.031 and 0.061 and 0.045
same,"DR response, single replicate",[1]; concentration 0.411523,0.036 and 0.075 and 0.045
same,"DR response, single replicate",[1]; concentration 1.23457,0.032 and 0.049 and 0.043
same,"DR response, single replicate",[1]; concentration 3.7037,0.027 and 0.033 and 0.028
same,"DR response, single replicate",[1]; concentration 11.1111,0.032 and 0.038 and 0.034
same,"DR response, single replicate",[1]; concentration 33.3333,0.046 and 0.052 and 0.049
same,"DR response, single replicate",[1]; concentration 100,0.053 and 0.079 (2×)
same,"DR response, single replicate",[2]; concentration 0.0457247,0.035 and 0.029 and 0.04
same,Max normalized AVG,[2]; concentration 0.0457247,0.03558
same,"Max normalized, single replicate",[2]; concentration 0.0457247,0.02736 and 0.03711 and 0.04227
same,"DR response, single replicate",[2]; concentration 0.137174,0.031 and 0.062 and 0.034
same,Max normalized AVG,[2]; concentration 0.137174,0.04249
same,"Max normalized, single replicate",[2]; concentration 0.137174,0.05849 and 0.03154 and 0.03744
same,"DR response, single replicate",[2]; concentration 0.411523,0.023 and 0.07 and 0.034
same,Max normalized AVG,[2]; concentration 0.411523,0.04179
same,"Max normalized, single replicate",[2]; concentration 0.411523,0.06604 and 0.03154 and 0.02778
same,"DR response, single replicate",[2]; concentration 1.23457,0.031 and 0.038 and 0.043
same,Max normalized AVG,[2]; concentration 1.23457,0.03773
same,"Max normalized, single replicate",[2]; concentration 1.23457,0.03585 and 0.03989 and 0.03744
same,"DR response, single replicate",[2]; concentration 3.7037,0.019 and 0.031 and 0.039
same,Max normalized AVG,[2]; concentration 3.7037,0.02946
same,"Max normalized, single replicate",[2]; concentration 3.7037,0.02925 and 0.03618 and 0.02295
same,"DR response, single replicate",[2]; concentration 11.1111,0.036 and 0.037 and 0.017
same,Max normalized AVG,[2]; concentration 11.1111,0.03138
same,"Max normalized, single replicate",[2]; concentration 11.1111,0.03491 and 0.01577 and 0.04348
same,"DR response, single replicate",[2]; concentration 33.3333,0.037 and 0.071 and 0.05
same,Max normalized AVG,[2]; concentration 33.3333,0.05268
same,"Max normalized, single replicate",[2]; concentration 33.3333,0.06698 and 0.04638 and 0.04469
same,"DR response, single replicate",[2]; concentration 100,0.055 and 0.086 and 0.089
same,Max normalized AVG,[2]; concentration 100,0.07671
same,"Max normalized, single replicate",[2]; concentration 100,0.08113 and 0.08256 and 0.06643
same,"Rheobase Normalized, mean of cells",[3],1.094
same,"DR response, single replicate",[4]; [coc] 0.0137174,0.056 and 0.038 and 0.023 and 0.039 and 0.008 and 0.041
same,"Max normalized, single replicate",[4]; [coc] 0.0137174,0.03823 and 0.06336 and 0.05409 and 0.0128 and 0.05758 and 0.03944
same,Max normalized AVG,[4]; [coc] 0.0137174,0.03793
same,"DR response, single replicate",[4]; [coc] 0.0411523,0.06 and 0.037 and 0.017 and 0.078 and 0.025 and 0.015 and 0.049
same,"Max normalized, single replicate",[4]; [coc] 0.0411523,0.03722 and 0.04683 and 0.05159 and 0.03467 and 0.024 and 0.06882 and 0.04225
same,Max normalized AVG,[4]; [coc] 0.0411523,0.04363
same,"DR response, single replicate",[4]; [coc] 0.123457,0.034 (2×) and 0.037 and 0.031 and 0.077 and 0.02 and 0.024
same,"Max normalized, single replicate",[4]; [coc] 0.123457,0.03722 and 0.0854 and 0.05093 and 0.02774 and 0.0384 and 0.04775 and 0.02394
same,Max normalized AVG,[4]; [coc] 0.123457,0.04448
same,"DR response, single replicate",[4]; [coc] 0.37037,0.097 and 0.151 and 0.076 and 0.133 and 0.062 and 0.045 and 0.065
same,"Max normalized, single replicate",[4]; [coc] 0.37037,0.1519 and 0.2094 and 0.08796 and 0.08599 and 0.072 and 0.09129 and 0.06831
same,Max normalized AVG,[4]; [coc] 0.37037,0.1095
same,"DR response, single replicate",[4]; [coc] 1.11111,0.511 and 0.61 and 0.222 and 1.095 and 0.27 and 0.244 and 0.282
same,"Max normalized, single replicate",[4]; [coc] 1.11111,0.6137 and 0.6116 and 0.7242 and 0.3745 and 0.3904 and 0.3961 and 0.3599
same,Max normalized AVG,[4]; [coc] 1.11111,0.4958
same,"DR response, single replicate",[4]; [coc] 3.33333,1.226 and 0.859 and 0.343 and 1.133 and 0.644 and 0.538 and 0.653
same,"Max normalized, single replicate",[4]; [coc] 3.33333,0.8642 and 0.9449 and 0.7493 and 0.8932 and 0.8608 and 0.9171 and 0.8634
same,Max normalized AVG,[4]; [coc] 3.33333,0.8704
same,"DR response, single replicate",[4]; [coc] 10,1.42 and 0.941 and 1.448 and 0.721 and 0.62 and 0.712
same,"Max normalized, single replicate",[4]; [coc] 10,0.9467 and 1 (4×) and 0.9577 and 0.992
same,Max normalized AVG,[4]; [coc] 10,0.9852
same,"DR response, single replicate",[4]; [coc] 30,1.327 and 0.994 and 1.512 and 0.592 and 0.625
same,"Max normalized, single replicate",[4]; [coc] 30,1 (3×) and 0.8211 and 0.9345
same,Max normalized AVG,[4]; [coc] 30,0.9511
same,max (DR response of the replicate),[4]; largest response of each DR,1.42 and 0.994 and 0.363 and 1.512 and 0.721 and 0.625 and 0.712
same,"Rheobase Normalized, mean of cells",[5],0.5604
same,"DR response, single replicate",[6]; [coc] 0.0137174,0.067 and 0.015 and 0.01 and 0.009 and 0.046 and 0.1 and 0.014
same,"Max normalized, single replicate",[6]; [coc] 0.0137174,0.01571 and 0.04202 and 0.03502 and 0.04968 and 0.07513 and 0.01777 and 0.06549
same,Max normalized AVG,[6]; [coc] 0.0137174,0.04297
same,"DR response, single replicate",[6]; [coc] 0.0411523,0.051 and 0.054 and 0.011 and 0.02 and 0.076 and 0.06 and 0.008 and 0.009
same,"Max normalized, single replicate",[6]; [coc] 0.0411523,0.05654 and 0.04622 and 0.07782 and 0.08207 and 0.04508 and 0.01015 and 0.007098 and 0.04985
same,Max normalized AVG,[6]; [coc] 0.0411523,0.04686
same,"DR response, single replicate",[6]; [coc] 0.123457,0.063 and 0.015 and 0.01 and 0.013 (2×) and 0.056 and 0.037 and 0.035
same,"Max normalized, single replicate",[6]; [coc] 0.123457,0.01571 and 0.04202 and 0.05058 and 0.06048 and 0.0278 and 0.04442 and 0.01025 and 0.06158
same,Max normalized AVG,[6]; [coc] 0.123457,0.0391
same,"DR response, single replicate",[6]; [coc] 0.37037,0.098 and 0.161 and 0.012 and 0.019 and 0.144 and 0.109 and 0.122 and 0.014
same,"Max normalized, single replicate",[6]; [coc] 0.37037,0.1686 and 0.05042 and 0.07393 and 0.1555 and 0.08189 and 0.1548 and 0.01104 and 0.0958
same,Max normalized AVG,[6]; [coc] 0.37037,0.099
same,"DR response, single replicate",[6]; [coc] 1.11111,0.363 and 0.54 and 0.108 and 0.033 and 0.699 and 0.66 and 0.506 and 0.355
same,"Max normalized, single replicate",[6]; [coc] 1.11111,0.5654 and 0.4538 and 0.1284 and 0.7549 and 0.4959 and 0.6421 and 0.28 and 0.3548
same,Max normalized AVG,[6]; [coc] 1.11111,0.4594
same,"DR response, single replicate",[6]; [coc] 3.33333,0.825 and 0.861 and 0.191 and 0.144 and 0.926 and 1.093 and 0.788 and 0.762
same,"Max normalized, single replicate",[6]; [coc] 3.33333,0.9016 and 0.8025 and 0.5603 and 1 (2×) and 0.8212 and 0.6009 and 0.8065
same,Max normalized AVG,[6]; [coc] 3.33333,0.8116
same,"DR response, single replicate",[6]; [coc] 10,1.023 and 0.955 and 0.229 and 0.257 and 0.908 and 1.331 and 0.736 and 1.159
same,"Max normalized, single replicate",[6]; [coc] 10,1 (4×) and 0.9622 and 0.9806 and 0.934 and 0.914
same,Max normalized AVG,[6]; [coc] 10,0.9738
same,"DR response, single replicate",[6]; [coc] 30,0.864 and 0.903 and 0.238 and 0.251 and 1.268
same,"Max normalized, single replicate",[6]; [coc] 30,0.9456 and 1 (2×) and 0.9767 and 0.8446
same,Max normalized AVG,[6]; [coc] 30,0.9534
same,max (DR response of the replicate),[6]; largest response of each DR,1.023 and 0.955 and 0.238 and 0.257 and 0.926 and 1.331 and 0.788 and 1.268
